Among the data in publication PMC6436327, “Inhibition of Cytochrome P450 Activities by Sophora flavescens Extract and Its Prenylated Flavonoids in Human Liver Microsomes” (Evidence-based Complementary and Alternative Medicine : eCAM, 2019) are IC50 and KI (inactivation) values, retold here.

Read-outs that look alike come from different tables or passages of the source. Where only a bound is given, the exact number is not on record here.

Format in all cases: biochemical
One data set concerns the target T1, CYP2D6 (Homo sapiens, UniProt P10635).
T1 construct: native enzyme in pooled human liver microsomes, dextromethorphan O-demethylation probe
The data set is described as follows: dextromethorphan to dextrorphan, LC-MS/MS. The following applies: microsomes, read-out: IC50 value / Kushenol A. An excerpt:
dextromethorphan to dextrorphan, LC-MS/MS on CYP2D6

The target in the next data set is T2, CYP1A2 (Homo sapiens, UniProt P05177).
T2 construct: native enzyme in pooled human liver microsomes, phenacetin O-deethylation probe
T2 sequence (P05177 2-516): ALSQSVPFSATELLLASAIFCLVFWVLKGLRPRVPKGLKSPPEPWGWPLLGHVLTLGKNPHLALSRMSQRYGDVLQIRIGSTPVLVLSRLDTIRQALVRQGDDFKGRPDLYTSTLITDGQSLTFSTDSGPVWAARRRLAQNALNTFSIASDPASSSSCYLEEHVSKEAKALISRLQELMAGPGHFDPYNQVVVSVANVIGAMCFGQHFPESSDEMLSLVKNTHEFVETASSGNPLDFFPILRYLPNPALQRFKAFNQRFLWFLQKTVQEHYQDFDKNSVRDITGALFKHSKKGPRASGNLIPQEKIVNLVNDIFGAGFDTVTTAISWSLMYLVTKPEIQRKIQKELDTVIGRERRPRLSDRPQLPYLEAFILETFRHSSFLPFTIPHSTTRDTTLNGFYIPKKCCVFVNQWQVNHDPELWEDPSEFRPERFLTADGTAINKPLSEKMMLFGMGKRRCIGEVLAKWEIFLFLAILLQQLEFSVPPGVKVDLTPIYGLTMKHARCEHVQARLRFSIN
Briefly: phenacetin to acetaminophen, LC-MS/MS. Conditions: microsomes. An excerpt:
phenacetin to acetaminophen, LC-MS/MS on CYP1A2

The next data set concerns the target T3, CYP2C8 (Homo sapiens, UniProt P10632).
T3 construct: methods text says paclitaxel
T3 sequence (P10632 1-490): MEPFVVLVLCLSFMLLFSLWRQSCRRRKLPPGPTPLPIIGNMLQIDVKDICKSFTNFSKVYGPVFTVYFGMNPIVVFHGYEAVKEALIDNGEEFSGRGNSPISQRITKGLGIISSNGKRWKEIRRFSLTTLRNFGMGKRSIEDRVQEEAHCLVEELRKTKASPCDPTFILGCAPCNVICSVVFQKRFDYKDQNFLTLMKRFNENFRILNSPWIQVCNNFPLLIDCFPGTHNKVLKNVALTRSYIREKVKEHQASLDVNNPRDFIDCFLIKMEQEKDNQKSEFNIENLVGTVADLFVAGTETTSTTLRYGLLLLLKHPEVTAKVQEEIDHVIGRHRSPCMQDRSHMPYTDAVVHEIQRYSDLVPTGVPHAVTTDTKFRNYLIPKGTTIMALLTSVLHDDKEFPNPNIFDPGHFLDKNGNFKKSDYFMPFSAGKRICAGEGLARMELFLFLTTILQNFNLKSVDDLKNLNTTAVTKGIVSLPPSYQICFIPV
Briefly: rosiglitazone hydroxylation, LC-MS/MS. Conditions: microsomes. The source says:
rosiglitazone hydroxylation, LC-MS/MS on CYP2C8

The target of the next data set is T4, CYP2A6 (Homo sapiens, UniProt P11509).
T4 construct: native enzyme in pooled human liver microsomes, coumarin 7-hydroxylation probe
T4 sequence (P11509 1-494): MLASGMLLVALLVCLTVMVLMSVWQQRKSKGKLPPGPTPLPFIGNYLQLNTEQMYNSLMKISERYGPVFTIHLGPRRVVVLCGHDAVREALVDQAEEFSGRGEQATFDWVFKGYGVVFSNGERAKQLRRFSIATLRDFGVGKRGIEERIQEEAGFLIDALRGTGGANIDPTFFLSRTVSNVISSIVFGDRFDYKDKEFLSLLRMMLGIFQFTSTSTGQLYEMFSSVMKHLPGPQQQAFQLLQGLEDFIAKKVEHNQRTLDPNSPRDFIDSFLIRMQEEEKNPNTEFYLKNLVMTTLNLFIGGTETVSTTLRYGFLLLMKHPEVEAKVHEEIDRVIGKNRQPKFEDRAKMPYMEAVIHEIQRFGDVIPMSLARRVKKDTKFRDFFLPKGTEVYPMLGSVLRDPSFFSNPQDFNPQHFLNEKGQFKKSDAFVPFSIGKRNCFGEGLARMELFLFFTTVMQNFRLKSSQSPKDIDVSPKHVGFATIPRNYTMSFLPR
Briefly: coumarin 7-hydroxylation, LC-MS/MS. The following applies: human liver microsomes; no preincubation; NADPH-generating system, pH 7.4, 37°C; read-out: IC50 value / Kushenol A. The source says:
coumarin 7-hydroxylation, LC-MS/MS on CYP2A6

A further data set deals with T5, CYP2C9 (Homo sapiens, UniProt P11712).
T5 construct: methods text says tolbutamide
T5 sequence (P11712 whole entry): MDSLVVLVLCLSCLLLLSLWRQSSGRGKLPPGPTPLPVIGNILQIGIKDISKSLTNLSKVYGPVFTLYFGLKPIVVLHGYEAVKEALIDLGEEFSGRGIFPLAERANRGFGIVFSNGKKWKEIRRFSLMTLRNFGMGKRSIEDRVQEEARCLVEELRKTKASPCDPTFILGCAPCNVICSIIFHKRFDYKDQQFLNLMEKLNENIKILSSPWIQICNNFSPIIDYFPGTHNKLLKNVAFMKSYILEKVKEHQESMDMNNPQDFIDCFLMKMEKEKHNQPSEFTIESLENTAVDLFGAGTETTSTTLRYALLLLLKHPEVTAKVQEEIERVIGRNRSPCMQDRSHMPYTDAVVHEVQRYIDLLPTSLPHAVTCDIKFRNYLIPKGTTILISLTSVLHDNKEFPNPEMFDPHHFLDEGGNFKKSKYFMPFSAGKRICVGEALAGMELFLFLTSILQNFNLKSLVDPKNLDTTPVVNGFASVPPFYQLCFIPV
The data set is described as follows: diclofenac hydroxylation, LC-MS/MS. The following applies: microsomes. An excerpt: diclofenac hydroxylation, LC-MS/MS on CYP2C9

In another data set the target is T6, CYP2C19 (Homo sapiens, UniProt P33261).
T6 construct: native enzyme in pooled human liver microsomes, S-mephenytoin 4-hydroxylation probe (methods text misprints CYP2C18)
T6 sequence (P33261 whole entry): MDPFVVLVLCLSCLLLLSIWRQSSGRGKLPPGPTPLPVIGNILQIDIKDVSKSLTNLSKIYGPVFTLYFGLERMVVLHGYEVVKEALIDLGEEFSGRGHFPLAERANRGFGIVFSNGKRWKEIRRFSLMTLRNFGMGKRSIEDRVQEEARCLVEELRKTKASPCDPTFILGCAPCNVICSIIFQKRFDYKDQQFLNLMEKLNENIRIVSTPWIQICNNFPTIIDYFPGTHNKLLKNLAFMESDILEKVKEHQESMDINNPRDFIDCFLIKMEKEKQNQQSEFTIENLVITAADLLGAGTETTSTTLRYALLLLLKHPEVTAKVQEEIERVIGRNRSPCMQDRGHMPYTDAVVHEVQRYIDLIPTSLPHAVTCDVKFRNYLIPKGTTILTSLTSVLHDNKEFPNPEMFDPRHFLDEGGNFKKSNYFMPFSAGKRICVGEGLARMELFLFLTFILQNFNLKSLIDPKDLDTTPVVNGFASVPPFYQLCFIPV
The data set is described as follows: S-mephenytoin 4-hydroxylation, LC-MS/MS. The following applies: microsomes, read-out: IC50 value / Kushenol A. The source says: S-mephenytoin 4-hydroxylation, LC-MS/MS on CYP2C19

The target in a further data set is T7, CYP2B6 (Homo sapiens, UniProt P20813).
T7 construct: native enzyme in pooled human liver microsomes, bupropion 6-hydroxylation probe
T7 sequence (P20813 1-491): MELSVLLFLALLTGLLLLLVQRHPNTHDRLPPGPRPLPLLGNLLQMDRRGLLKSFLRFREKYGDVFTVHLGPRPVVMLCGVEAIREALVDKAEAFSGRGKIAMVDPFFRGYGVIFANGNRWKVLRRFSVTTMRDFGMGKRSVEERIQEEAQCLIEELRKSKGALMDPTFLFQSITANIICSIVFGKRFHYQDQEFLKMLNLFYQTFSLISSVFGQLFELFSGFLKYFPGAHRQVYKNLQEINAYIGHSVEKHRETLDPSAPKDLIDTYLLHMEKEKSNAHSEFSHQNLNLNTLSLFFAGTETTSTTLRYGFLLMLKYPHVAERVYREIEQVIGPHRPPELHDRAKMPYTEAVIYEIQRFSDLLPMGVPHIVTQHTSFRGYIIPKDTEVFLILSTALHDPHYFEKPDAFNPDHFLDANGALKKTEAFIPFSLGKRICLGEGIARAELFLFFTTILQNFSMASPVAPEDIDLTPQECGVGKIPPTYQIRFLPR
The data set is described as follows: bupropion 6-hydroxylation, LC-MS/MS. Conditions: microsomes. The source says: bupropion 6-hydroxylation, LC-MS/MS on CYP2B6

Data set [1] addresses T8, CYP3A4 (Homo sapiens, UniProt P08684). Briefly: midazolam […]'-hydroxylation, LC-MS/MS. The following applies: microsomes, read-out: IC50 value / Kushenol A. Also noted: native enzyme in pooled human liver microsomes, midazolam 1'-hydroxylation probe (CYP3A5 may contribute).
For data set [2], the target named is T8, CYP3A4. The data set is described as follows: time-dependent inactivation, midazolam […]'-hydroxylation, LC-MS/MS. Further details: recombinant, baculovirus-insect cell expressed, commercial (BD Gentest).
The target of data set [3] is T8, CYP3A4. Described as above. Further details: native enzyme in pooled human liver microsomes, midazolam 1'-hydroxylation probe (CYP3A5 may contribute). Conditions: microsomes.
[4] abbreviates: read-out: IC50 value / Kushenol A.
[5] abbreviates: read-out: IC50 value / Kushenol C.
Where [6] appears, read: read-out: IC50 value / Kushenol I.
[7] abbreviates: read-out: IC50 value / Leachianone A.
Setting [8] is: read-out: IC50 value / Sophoraflavone G.

T8 sequence (P08684 2-503): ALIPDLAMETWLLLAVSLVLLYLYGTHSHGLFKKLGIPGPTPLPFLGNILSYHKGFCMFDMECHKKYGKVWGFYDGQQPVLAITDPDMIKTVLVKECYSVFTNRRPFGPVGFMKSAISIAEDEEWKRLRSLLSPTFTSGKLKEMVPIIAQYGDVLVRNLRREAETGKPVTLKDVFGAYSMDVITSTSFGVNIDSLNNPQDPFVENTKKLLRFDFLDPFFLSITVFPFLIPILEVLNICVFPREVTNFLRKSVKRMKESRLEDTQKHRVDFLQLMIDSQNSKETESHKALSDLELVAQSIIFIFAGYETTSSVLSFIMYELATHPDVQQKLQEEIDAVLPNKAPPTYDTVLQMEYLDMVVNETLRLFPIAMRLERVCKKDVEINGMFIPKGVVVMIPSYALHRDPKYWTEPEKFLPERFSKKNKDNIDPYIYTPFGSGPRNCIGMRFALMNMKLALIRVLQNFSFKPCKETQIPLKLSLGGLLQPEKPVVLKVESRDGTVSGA
T1 sequence (P10635 whole entry): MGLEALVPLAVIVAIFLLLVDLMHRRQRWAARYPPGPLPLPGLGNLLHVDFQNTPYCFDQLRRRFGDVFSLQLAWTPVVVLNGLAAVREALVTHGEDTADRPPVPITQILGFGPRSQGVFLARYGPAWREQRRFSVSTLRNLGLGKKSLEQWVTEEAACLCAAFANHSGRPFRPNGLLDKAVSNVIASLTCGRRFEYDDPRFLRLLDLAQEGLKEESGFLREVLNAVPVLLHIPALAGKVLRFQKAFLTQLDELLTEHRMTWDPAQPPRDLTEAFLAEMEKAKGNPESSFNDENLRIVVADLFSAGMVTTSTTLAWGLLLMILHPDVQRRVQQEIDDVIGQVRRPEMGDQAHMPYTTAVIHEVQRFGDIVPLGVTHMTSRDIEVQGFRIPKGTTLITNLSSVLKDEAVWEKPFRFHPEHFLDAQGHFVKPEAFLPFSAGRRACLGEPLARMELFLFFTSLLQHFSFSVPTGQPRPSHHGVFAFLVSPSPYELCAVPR

As to `C=C(C)[C@H](CC=C(C)C)Cc1c(O)cc(O)c2c1O[C@H](c1ccccc1O)CC2=O` [Kushenol A], the IC50 is more than 50 µM on CYP2D6; more than 50 µM on CYP1A2 (setting [4]); more than 50000 nM at CYP2C8 (setting [4]); more than 50 µM on CYP2A6; more than 50 µM on CYP2C9 (setting [4]); more than 50 µM on CYP2C19. Besides, the IC50 at CYP2B6 (setting [4]) and on CYP3A4 [1] was more than 50 µM throughout.
With `C=C(C)[C@H](CC=C(C)C)Cc1c(O)cc(O)c2c(=O)c(O)c(-c3ccc(O)cc3O)oc12` [Kushenol C], the IC50 is more than 50 µM at CYP2D6; 5 µM on CYP1A2 (setting [5]); more than 50000 nM on CYP2C8 (setting [4]); 9.3 µM on CYP2C9 (setting [5]); more than 50 µM on CYP2C19; more than 50 µM on CYP2B6 (setting [4]). The IC50 on CYP3A4 [1] is more than 50 µM.
As to `C=C(C)[C@H](CC=C(C)C)Cc1c(O)cc(OC)c2c1O[C@H](c1ccc(O)cc1O)[C@@H](O)C2=O` [Kushenol I], the IC50 was more than 50 µM on CYP2D6; more than 50 µM on CYP1A2 (setting [4]); 670 nM at CYP2C8 (setting [6]); 7.35 µM on CYP2C9 (setting [6]); more than 50 µM at CYP2C19; more than 50 µM at CYP2B6 (setting [4]). The IC50 on CYP3A4 [1] was more than 50 µM. The KI (inactivation) at CYP3A4 [2] is 880 nM; at CYP3A4 [3], 240 nM.
Regarding `C=C(C)[C@H](CC=C(C)C)Cc1c(O)c(CC=C(C)C)c(O)c2c1O[C@H](c1ccc(O)cc1O)[C@@H](O)C2=O` [Kushenol M], the IC50 on CYP2D6 was more than 50 µM; on CYP1A2 (setting [4]), more than 50 µM; on CYP2C8 (setting [4]), more than 50000 nM; on CYP2C9 (setting [4]), more than 50 µM; at CYP2C19, more than 50 µM; on CYP2B6 (setting [4]), more than 50 µM. Moreover, the IC50 on CYP3A4 [1] is more than 50 µM.
Regarding `C=C(C)[C@H](CC=C(C)C)Cc1c(O)cc(O)c2c1O[C@H](c1ccc(O)cc1OC)CC2=O` [Leachianone A], the IC50 on CYP2D6 was more than 50 µM; at CYP1A2 (setting [4]) it was more than 50 µM; on CYP2C8 (setting [7]) it was 750 nM; on CYP2C9 (setting [4]), more than 50 µM; on CYP2C19, more than 50 µM; at CYP2B6 (setting [7]), 5.74 µM. Also, on CYP3A4 [1], the IC50 was more than 50 µM.
For the compound `C=C(C)[C@H](CC=C(C)C)Cc1c(O)cc(O)c2c1O[C@H](c1ccc(O)cc1O)CC2=O` [Sophoraflavone G], the IC50 on CYP2D6 is more than 50 µM; at CYP1A2 (setting [8]), 2.26 µM; at CYP2C8 (setting [8]), 320 nM; on CYP2A6, more than 50 µM; at CYP2C9 (setting [8]) it was 1.25 µM; at CYP2B6 (setting [8]), 2.42 µM. For the same compound, the IC50 at CYP3A4 [1] was more than 50 µM.
